Results published in patent US10750743B2, “Pyridazinone herbicides” (E.I. DU PONT DE NEMOURS AND COMPANY, priority 2015, dated 2020).

Experiments:
Format in all cases: in vivo
[1] = tested on: barnyardgrass (Echinochloa crus-galli); test: Test A preemergence, directed soil spray, visual injury rating; settings: 0 is no effect, 100 is complete control
From the text: (§1) Seeds of plant species selected from barnyardgrass (Echinochloa crus-galli), kochia (Kochia scoparia), ragweed (common ragweed, Ambrosia elatior), ryegrass, It. (Italian ryegrass, Lolium multiflorum), foxtail, giant (giant foxtail, Setaria faberii), and pigweed (Amaranthus retroflexus), were planted into a blend of loam soil and sand and treated preemergence with a directed soil spray using test chemicals formulated in a non-phytotoxic solvent mixture which included a surfactant.
(§2) At the same time, plants selected from these weed species and also wheat (Triticum aestivum), corn (Zea mays), blackgrass (Alopecurus myosuroides), and galium (catchweed bedstraw, Galium aparine), were planted in pots containing the same blend of loam soil and sand and treated with postemergence applications of test chemicals formulated in the same manner Plants ranged in height from 2 to 10 cm and were in the one- to two-leaf stage for the postemergence treatment. Treated plants and untreated controls were maintained in a greenhouse for approximately 10 d, after which time all treated plants were compared to untreated controls and visually evaluated for injury. Plant response ratings, summarized in Table A, are based on a 0 to 100 scale where 0 is no effect and 100 is complete control. A dash (-) response means no test result.

[2] = tested on: foxtail, giant (giant foxtail, Setaria faberii); test: as above; settings: 0 is no effect, 100 is complete control
From the text: as §1, §2

kochia (Kochia scoparia) [3] = test: as above; settings: 0 is no effect, 100 is complete control
From the text: as §1, §2

[4] = tested on: pigweed (Amaranthus retroflexus); test: as above; settings: 0 is no effect, 100 is complete control
From the text: as §1, §2

[5] = tested on: ragweed (common ragweed, Ambrosia elatior); test: as above; settings: 0 is no effect, 100 is complete control
From the text: as §1, §2

[6] = tested on: ryegrass, It. (Italian ryegrass, Lolium multiflorum); test: as above; settings: 0 is no effect, 100 is complete control
From the text: as §1, §2

[7] = tested on: barnyardgrass (Echinochloa crus-galli); test: Test A postemergence application, visual injury rating; settings: 0 to 100 scale, 0 no effect, 100 complete control
From the text: as §1, §2

[8] = tested on: blackgrass (Alopecurus myosuroides); test: as above; settings: 0 to 100 scale, 0 no effect, 100 complete control
From the text: as §1, §2

corn (Zea mays) = test: as above; settings: 0 to 100 scale, 0 no effect, 100 complete control
From the text: as §1, §2

[9] = tested on: foxtail, giant (giant foxtail, Setaria faberii); test: as above; settings: 0 to 100 scale, 0 no effect, 100 complete control
From the text: as §1, §2

[10] = tested on: galium (catchweed bedstraw, Galium aparine); test: as above; settings: 0 to 100 scale, 0 no effect, 100 complete control
From the text: as §1, §2

kochia (Kochia scoparia) [11] = test: as above; settings: 0 to 100 scale, 0 no effect, 100 complete control
From the text: as §1, §2

[12] = tested on: pigweed (Amaranthus retroflexus); test: as above; settings: 0 to 100 scale, 0 no effect, 100 complete control
From the text: as §1, §2

[13] = tested on: ragweed (common ragweed, Ambrosia elatior); test: as above; settings: 0 to 100 scale, 0 no effect, 100 complete control
From the text: as §1, §2

[14] = tested on: ryegrass, It. (Italian ryegrass, Lolium multiflorum); test: as above; settings: 0 to 100 scale, 0 no effect, 100 complete control
From the text: as §1, §2

[15] = tested on: wheat (Triticum aestivum); test: as above; settings: 0 to 100 scale, 0 no effect, 100 complete control
From the text: as §1, §2

CCOC(=O)Oc1c(C)nn(C)c(=O)c1-c1cccc2sccc12 [Compound 5]
100: Plant response rating (0 to 100 scale), Pigweed ([4]; 500 g ai/ha) | Plant response rating (0 to 100 scale), Ryegrass, It. ([6]; 500 g ai/ha)
0: Plant response rating (0 to 100 scale), Barnyardgrass ([1]; 125 g ai/ha) | Plant response rating (0 to 100 scale), Foxtail, Giant ([2]; 125 g ai/ha) | Plant response rating (0 to 100 scale), Ragweed ([5]; 125 g ai/ha) | Barnyardgrass plant response rating ([7]; 125 g ai/ha) | Corn plant response rating (corn (Zea mays); 125 g ai/ha) | Corn plant response rating (corn (Zea mays); 500 g ai/ha) | Foxtail, Giant plant response rating ([9]; 125 g ai/ha) | Kochia plant response rating (kochia (Kochia scoparia) [11]; 125 g ai/ha) | Pigweed plant response rating ([12]; 125 g ai/ha) | Ragweed plant response rating ([13]; 125 g ai/ha) | Wheat plant response rating ([15]; 125 g ai/ha)
30: Plant response rating (0 to 100 scale), Kochia (kochia (Kochia scoparia) [3]; 500 g ai/ha) | Blackgrass plant response rating ([8]; 125 g ai/ha) | Galium plant response rating ([10]; 125 g ai/ha)
60: Blackgrass plant response rating ([8]; 500 g ai/ha)
40: Plant response rating (0 to 100 scale), Barnyardgrass ([1]; 500 g ai/ha) | Plant response rating (0 to 100 scale), Foxtail, Giant ([2]; 500 g ai/ha)
70: Ryegrass, It. plant response rating ([14]; 125 g ai/ha)
10: Plant response rating (0 to 100 scale), Kochia (kochia (Kochia scoparia) [3]; 125 g ai/ha)
20: Plant response rating (0 to 100 scale), Pigweed ([4]; 125 g ai/ha) | Plant response rating (0 to 100 scale), Ragweed ([5]; 500 g ai/ha) | Barnyardgrass plant response rating ([7]; 500 g ai/ha) | Foxtail, Giant plant response rating ([9]; 500 g ai/ha) | Kochia plant response rating (kochia (Kochia scoparia) [11]; 500 g ai/ha) | Pigweed plant response rating ([12]; 500 g ai/ha) | Ragweed plant response rating ([13]; 500 g ai/ha) | Wheat plant response rating ([15]; 500 g ai/ha)
80: Plant response rating (0 to 100 scale), Ryegrass, It. ([6]; 125 g ai/ha) | Galium plant response rating ([10]; 500 g ai/ha)
90: Ryegrass, It. plant response rating ([14]; 500 g ai/ha)

Cc1nn(C)c(=O)c(-c2c(C)sc3ncccc23)c1O [Compound 14]
20: Plant response rating (0 to 100 scale), Ryegrass, It. ([6]; 500 g ai/ha) | Ryegrass, It. plant response rating ([14]; 500 g ai/ha)
10: Plant response rating (0 to 100 scale), Ryegrass, It. ([6]; 125 g ai/ha)
40: Galium plant response rating ([10]; 500 g ai/ha)
0: Plant response rating (0 to 100 scale), Barnyardgrass ([1]; 125 g ai/ha) | Plant response rating (0 to 100 scale), Barnyardgrass ([1]; 500 g ai/ha) | Plant response rating (0 to 100 scale), Foxtail, Giant ([2]; 125 g ai/ha) | Plant response rating (0 to 100 scale), Foxtail, Giant ([2]; 500 g ai/ha) | Plant response rating (0 to 100 scale), Kochia (kochia (Kochia scoparia) [3]; 125 g ai/ha) | Plant response rating (0 to 100 scale), Kochia (kochia (Kochia scoparia) [3]; 500 g ai/ha) | Plant response rating (0 to 100 scale), Pigweed ([4]; 125 g ai/ha) | Plant response rating (0 to 100 scale), Pigweed ([4]; 500 g ai/ha) | Plant response rating (0 to 100 scale), Ragweed ([5]; 125 g ai/ha) | Plant response rating (0 to 100 scale), Ragweed ([5]; 500 g ai/ha) | Barnyardgrass plant response rating ([7]; 125 g ai/ha) | Barnyardgrass plant response rating ([7]; 500 g ai/ha) | Blackgrass plant response rating ([8]; 125 g ai/ha) | Blackgrass plant response rating ([8]; 500 g ai/ha) | Corn plant response rating (corn (Zea mays); 125 g ai/ha) | Corn plant response rating (corn (Zea mays); 500 g ai/ha) | Foxtail, Giant plant response rating ([9]; 125 g ai/ha) | Foxtail, Giant plant response rating ([9]; 500 g ai/ha) | Galium plant response rating ([10]; 125 g ai/ha) | Kochia plant response rating (kochia (Kochia scoparia) [11]; 125 g ai/ha) | Kochia plant response rating (kochia (Kochia scoparia) [11]; 500 g ai/ha) | Pigweed plant response rating ([12]; 125 g ai/ha) | Pigweed plant response rating ([12]; 500 g ai/ha) | Ragweed plant response rating ([13]; 125 g ai/ha) | Ragweed plant response rating ([13]; 500 g ai/ha) | Ryegrass, It. plant response rating ([14]; 125 g ai/ha) | Wheat plant response rating ([15]; 125 g ai/ha) | Wheat plant response rating ([15]; 500 g ai/ha)

CCOC(=O)Oc1c(C)nn(C)c(=O)c1-c1c(C)sc2ncc(C)cc12 [Compound 2]
40: Blackgrass plant response rating ([8]; 500 g ai/ha) | Galium plant response rating ([10]; 125 g ai/ha)
90: Kochia plant response rating (kochia (Kochia scoparia) [11]; 500 g ai/ha) | Pigweed plant response rating ([12]; 500 g ai/ha) | Ryegrass, It. plant response rating ([14]; 500 g ai/ha)
60: Plant response rating (0 to 100 scale), Kochia (kochia (Kochia scoparia) [3]; 500 g ai/ha)
80: Plant response rating (0 to 100 scale), Pigweed ([4]; 500 g ai/ha) | Galium plant response rating ([10]; 500 g ai/ha)
30: Plant response rating (0 to 100 scale), Ryegrass, It. ([6]; 125 g ai/ha) | Kochia plant response rating (kochia (Kochia scoparia) [11]; 125 g ai/ha) | Ryegrass, It. plant response rating ([14]; 125 g ai/ha)
100: Plant response rating (0 to 100 scale), Ryegrass, It. ([6]; 500 g ai/ha)
0: Plant response rating (0 to 100 scale), Barnyardgrass ([1]; 125 g ai/ha) | Plant response rating (0 to 100 scale), Foxtail, Giant ([2]; 125 g ai/ha) | Plant response rating (0 to 100 scale), Kochia (kochia (Kochia scoparia) [3]; 125 g ai/ha) | Plant response rating (0 to 100 scale), Pigweed ([4]; 125 g ai/ha) | Plant response rating (0 to 100 scale), Ragweed ([5]; 125 g ai/ha) | Barnyardgrass plant response rating ([7]; 125 g ai/ha) | Corn plant response rating (corn (Zea mays); 125 g ai/ha) | Corn plant response rating (corn (Zea mays); 500 g ai/ha) | Foxtail, Giant plant response rating ([9]; 125 g ai/ha) | Wheat plant response rating ([15]; 125 g ai/ha)
70: Pigweed plant response rating ([12]; 125 g ai/ha)
20: Plant response rating (0 to 100 scale), Barnyardgrass ([1]; 500 g ai/ha) | Plant response rating (0 to 100 scale), Foxtail, Giant ([2]; 500 g ai/ha) | Plant response rating (0 to 100 scale), Ragweed ([5]; 500 g ai/ha) | Barnyardgrass plant response rating ([7]; 500 g ai/ha) | Blackgrass plant response rating ([8]; 125 g ai/ha) | Foxtail, Giant plant response rating ([9]; 500 g ai/ha) | Ragweed plant response rating ([13]; 125 g ai/ha) | Wheat plant response rating ([15]; 500 g ai/ha)
50: Ragweed plant response rating ([13]; 500 g ai/ha)

CCC(=O)Oc1c(C)nn(C)c(=O)c1-c1cccc2sccc12 [Compound 4]
60: Plant response rating (0 to 100 scale), Kochia (kochia (Kochia scoparia) [3]; 500 g ai/ha)
30: Blackgrass plant response rating ([8]; 500 g ai/ha) | Pigweed plant response rating ([12]; 500 g ai/ha)
40: Plant response rating (0 to 100 scale), Pigweed ([4]; 125 g ai/ha) | Plant response rating (0 to 100 scale), Ryegrass, It. ([6]; 125 g ai/ha) | Ragweed plant response rating ([13]; 500 g ai/ha)
80: Ryegrass, It. plant response rating ([14]; 125 g ai/ha)
100: Plant response rating (0 to 100 scale), Ryegrass, It. ([6]; 500 g ai/ha) | Ryegrass, It. plant response rating ([14]; 500 g ai/ha)
20: Plant response rating (0 to 100 scale), Barnyardgrass ([1]; 500 g ai/ha) | Plant response rating (0 to 100 scale), Foxtail, Giant ([2]; 500 g ai/ha) | Plant response rating (0 to 100 scale), Ragweed ([5]; 500 g ai/ha) | Barnyardgrass plant response rating ([7]; 500 g ai/ha) | Blackgrass plant response rating ([8]; 125 g ai/ha) | Foxtail, Giant plant response rating ([9]; 500 g ai/ha) | Kochia plant response rating (kochia (Kochia scoparia) [11]; 500 g ai/ha) | Pigweed plant response rating ([12]; 125 g ai/ha)
70: Plant response rating (0 to 100 scale), Pigweed ([4]; 500 g ai/ha) | Galium plant response rating ([10]; 125 g ai/ha)
0: Plant response rating (0 to 100 scale), Barnyardgrass ([1]; 125 g ai/ha) | Plant response rating (0 to 100 scale), Foxtail, Giant ([2]; 125 g ai/ha) | Plant response rating (0 to 100 scale), Kochia (kochia (Kochia scoparia) [3]; 125 g ai/ha) | Plant response rating (0 to 100 scale), Ragweed ([5]; 125 g ai/ha) | Barnyardgrass plant response rating ([7]; 125 g ai/ha) | Corn plant response rating (corn (Zea mays); 125 g ai/ha) | Corn plant response rating (corn (Zea mays); 500 g ai/ha) | Foxtail, Giant plant response rating ([9]; 125 g ai/ha) | Kochia plant response rating (kochia (Kochia scoparia) [11]; 125 g ai/ha) | Ragweed plant response rating ([13]; 125 g ai/ha) | Wheat plant response rating ([15]; 125 g ai/ha) | Wheat plant response rating ([15]; 500 g ai/ha)
90: Galium plant response rating ([10]; 500 g ai/ha)
